Results on 3 compounds are retold here after patent US20060073574A1 (priority 2001, published 2006).

Structures are written as SMILES.

Series [1] concerns Saccharomyces cerevisiae. Kind of series: antifungal activity test against Saccharomyces cerevisiae. Conditions: tested against Saccharomyces cerevisiae.
Series [2] deals with Leishmania. Conditions: cited from earlier work.
The conditions of series [3]: amphotericin B: intravenous or intrathecal routes; cited from earlier work.
Series [4] has as its system human immunodeficiency virus (HIV). Conditions: cited from earlier work; for inhibition of HIV infection / HIV-1 replication: cultured cells.
The subject of series [5] is BSE or scrapie agents. The conditions noted are these: cited from earlier work; for survival times: hamsters and mice infected intracerebrally with BSE or scrapie agents; for delaying the onset of symptoms associated with scrapie and BSE: transmissible spongiform encephalopathies scrapie and BSE.
The conditions of series [6]: compared with amphotericin B; cited from earlier work.
The conditions of series [7]: derivative of amphotericin B; cited from earlier work.

On to `C[C@@H]1[C@H](O)[C@@H](C)/C=C/C=C/C=C/C=C/C=C/C=C/C=C/[C@H](O[C@@H]2O[C@@H](C)[C@@H](O)[C@H](N)[C@@H]2O)C[C@@H]2O[C@](O)(C[C@@H](O)C[C@@H](O)CCC[C@@H](O)C[C@@H](O)CC(=O)O[C@H]1C)C[C@H](O)[C@H]2C(=O)O` [8-deoxyamphotericin B], for which, in series [1], the antifungal activity result was “as great as that of amphotericin B”.

In the case of `C[C@@H]1[C@H](O)[C@@H](C)/C=C/C=C/C=C/C=C/C=C/C=C/C=C/[C@H](O[C@@H]2O[C@H](C)[C@@H](O)[C@H](N)[C@@H]2O)C[C@@H]2O[C@](O)(C[C@@H](O)C[C@@H](O)[C@H](O)CC[C@@H](O)C[C@@H](O)CC(=O)O[C@H]1C)C[C@H](O)[C@H]2C(=O)O` [Amphotericin B], in series [2], the “activity against Leishmania” value was “active against Leishmania”. Further, the toxicity result in series [3] was “consistently associated with a number of toxic side-effects”. For the same compound, in series [4] (in vitro), the “inhibition of HIV infection / HIV-1 replication” value was “inhibits infection of cultured cells”. Besides, in series [5], the survival times result was “prolonged the survival times”; the “delaying the onset of symptoms associated with scrapie and BSE” value is given as “showed activity in delaying the onset of symptoms”.

Regarding `CNC[C@H](O)[C@@H](O)[C@H](O)[C@H](O)CO.C[C@@H]1[C@H](O)[C@@H](C)/C=C/C=C/C=C/C=C/C=C/C=C/C=C/[C@H](O[C@@H]2O[C@H](C)[C@@H](O)[C@H](NCC(=O)[C@@H](O)[C@@H]3OC(c4ccccc4)OC[C@H]3O)[C@@H]2O)C[C@@H]2O[C@](O)(C[C@@H](O)C[C@@H](O)[C@H](O)CC[C@@H](O)C[C@@H](O)CC(=O)O[C@H]1C)C[C@H](O)[C@H]2C(=O)O` (stereo partly shown) [MS-8209], in series [4] (HIV CD4+ cells), the “T-cell activation via the CD3/TcR” value is recorded as “restore T-cell activation”. In addition, the “inhibition of HIV infection / HIV-1 replication” value in series [4] (in vitro) was “inhibit HIV-1 replication in vitro in all cell types”. The cytotoxicity result in series [4] (in vitro, all cell types) is listed as “without cytotoxicity”. Besides, the water solubility entry in series [6] is recorded as “more water soluble”. In addition, the activity retained result in series [7] is given as “retains activity”. In series [5], the survival times result is given as “prolonged the survival times”; the “delaying the onset of symptoms associated with scrapie and BSE” value is on record as “showed activity in delaying the onset of symptoms”.
